# In paper PMC9865752, “Design and Synthesis of (Z)-2-(Benzylamino)-5-benzylidenethiazol-4(5H)-one Derivatives as Tyrosinase Inhibitors and Their Anti-Melanogenic and Antioxidant Effects” (Molecules, 2023):
# Like-named read-outs stand apart in the source and are kept apart here.
# Legend:
# mushroom tyrosinase [1] = assay: Mushroom tyrosinase inhibition assay; assay type: biochemical; settings: for IC50: mean ± SEM of three experiments
# Description: As mushroom tyrosinase is commercially available and relatively cheap, it is used as a tool for the identification of novel tyrosinase inhibitors. Here, we examined the tyrosinase inhibitory activities of the 14 BABT derivatives against mushroom tyrosinase in the presence of L-tyrosine or L-dopa as substrates.
# Mushroom tyrosinase inhibitory activities of BABT derivatives were determined as described previously, with minor modifications. L-Tyrosine and L-dopa were used as substrates to evaluate the enzyme activity. […] Assay mixtures were incubated at 37 °C for 30 min, and dopachrome amounts synthesized were determined by measuring the optical density of each well at 475 nm using a microplate reader (VersaMax; Molecular Devices, Sunnyvale, CA, USA).
# mushroom tyrosinase [2] = target: T1, mushroom tyrosinase (Agaricus bisporus, UniProt C7FF04); assay: Kinetic studies of mushroom tyrosinase inhibition (Lineweaver–Burk and Dixon plots); assay type: biochemical; settings: substrate L-dopa
# T1 construct: purchased
# Description: Kinetic studies using Lineweaver–Burk plots were performed using four different concentrations (0, 0.5, 1, and 2 µM) of the test derivatives (7 and 8) and five different concentrations (0.5, 1, 2, 4, and 8 mM for 7, and 1, 2, 4, 8, and 16 mM for 8) of L-dopa.
# Lineweaver–Burk plots for 7 and 8 were transformed into the corresponding Dixon plots to determine their inhibition constant (Ki) values for the mushroom tyrosinase–inhibitor complex. […] The Ki values for the mushroom tyrosinase–inhibitor complex were obtained from the x-axis value of each convergence point.
# Lineweaver–Burk plots of derivatives 7 and 8 were obtained in the presence of L-dopa as the substrate. Briefly, 20 µL aliquots of mushroom tyrosinase aqueous solution (200 units/mL) were added to each well of a 96-well plate containing 10 µL BABT derivative (7 or 8) DMSO solution (final concentrations: 0, 0.5, 1, and 2 µM) and 170 µL of an aqueous solution containing L-dopa (final concentrations: 1.0, 2.0, 4.0, 8.0, and 16.0 mM) and sodium phosphate buffer (pH 6.5, 17.2 mM). The initial rate of dopachrome formation was determined by examining the changes in absorbance at a wavelength of 475 nm (ΔOD475/min) using a microplate reader (VersaMax; Molecular Devices).
# B16F10 cells = assay: Cell viability (EZ-Cytox assay); assay type: cell-based, murine; settings: 0, 1, 2, 5, 10, 20 µM
# Description: Before these experiments were performed, the influence of these derivatives on cytotoxicity in B16F10 cells was examined to determine their optimal concentration range for B16F10 cell experiments. The cytotoxicity of derivatives 7 and 8 at six concentrations (0, 1, 2, 5, 10, and 20 µM) was assessed using the EZ-Cytox assay.
# Cytotoxicity assays in B16F10 cells were performed using the EZ-Cytox solution (EZ-3000, DoGenBio, Seoul, Republic of Korea). Briefly, B16F10 cells were seeded at a density of 1 × 10^4 cells per well and cultured at 37 °C in a 5% CO2 atmosphere for 24 h. […] Then, the EZ-Cytox solution (10 μL aliquot) was added to each well. After 2 h of incubation at 37 °C, the optical density of each well was measured at 450 nm using a microplate reader (VersaMax; Molecular Devices).
# [3] = DPPH radical scavenging assay; settings: test samples 500 µM; DPPH 0.18 mM; 30 min in the dark
# Description: DPPH is a light-sensitive compound containing free radicals. The DPPH assay is one of the most common methods for evaluating the antioxidant activity of a compound. The effects of BABT derivatives on DPPH radical scavenging activities were evaluated using L-ascorbic acid as a positive reference control. DPPH radical scavenging activities were measured after leaving the mixed samples (test samples of 500 µM plus DPPH solution of 0.18 mM) in the dark for 30 min. To determine the radical scavenging activities, the absorbance of the mixed samples was measured at 517 nm.
# According to previously described methods, with minor modifications, the DPPH radical scavenging activities of BABT derivatives 1–14 were measured. A DPPH (0.2 mM) and methanol solution (180 µL) was mixed with 20 µL of a DMSO solution containing 5 mM BABT derivative, or with 20 µL of an aqueous solution of 5 mM L-ascorbic acid, in each well of a 96-well plate and kept at ambient temperature in the dark for 30 min. The optical density of each well was measured at 517 nm using a microplate reader (VersaMax; Molecular Devices). L-Ascorbic acid was used as a positive reference control, and the DPPH radical scavenging abilities of BABT derivatives were compared with those of L-ascorbic acid. All experiments were performed independently, thrice.
# [4] = SIN-1-induced ROS scavenging assay; settings: 20 µM; SIN-1 as ROS generator; DCFH-DA probe
# From the text: The scavenging activities of the BABT derivatives 1–14 against ROS and peroxynitrite (ONOO^−) were investigated because the antioxidant activities of the compounds may modulate melanogenesis. To measure the ROS scavenging activities of BABT derivatives, 2′,7′-dichlorodihydrofluorescein diacetate (DCFH-DA) and 3-morpholinosydnonimine (SIN-1) were used as a fluorogenic probe and ROS generator, respectively. The reaction of DCFH-DA with esterase produces 2′,7′-dichlorodihydrofluorescein (DCFH), which generates the fluorescent compound 2′,7′-dichlorofluorescein (DCF) by reacting with ROS produced by SIN-1. Therefore, ROS scavenging activities were determined by measuring the DCF fluorescence remaining after the BABT derivatives scavenged the ROS generated by SIN-1. […] BABT derivatives and Trolox, the positive control, were used at a concentration of 20 µM.
# The ROS scavenging activities of the BABT derivatives were measured using an oxidant-sensitive fluorescent probe. Derivatives or Trolox (10 µL; final concentration: 20 µM) were seeded in a black 96-well plate. Then, 10 µL of SIN-1 (10 µM) was added to induce radical species generation and mixed with 180 µL of sodium phosphate buffer (pH 7.4) containing 12.5 µM DCF-DA and 600 units of esterase. Fluorescence intensity was measured at emission and excitation wavelengths of 535 and 485 nm, respectively, using a fluorescence microplate reader (Berthold Technologies GmbH & Co., Wien, Austria). Trolox was used as the positive control.
# [5] = ABTS radical scavenging assay; settings: test samples 100 µM; 2 min in the dark
# Description: An antioxidant assay using ABTS is also commonly used to assess the antioxidant activities of compounds. Donation of one electron from ABTS to potassium persulfate generates the ABTS radical cation. An ABTS radical scavenging activity assay was performed using 100 µM of BABT derivatives or Trolox (a positive reference control) by mixing test samples with ABTS radical cations obtained from a reaction of potassium persulfate and ABTS. ABTS radical scavenging activity was assessed by measuring the optical density at 734 nm after leaving the test sample–ABTS radical cation mixture in the dark for 2 min.
# According to a previously described method, with minor modifications, the ABTS radical scavenging activities of BABT derivatives 1–14 were assessed. Briefly, an ABTS radical solution was prepared by mixing 10 mL of aqueous ABTS solution (7 mM) with 10 mL of potassium persulfate aqueous solution (2.45 mM), and the mixture was kept for 11–15 h in the dark at room temperature until the absorbance remained constant. Prior to the antioxidant assay experiments, the ABTS radical solution was diluted with water to adjust the absorbance at 734 nm to 0.70 ± 0.02. A 10 µL aliquot of BABT derivatives or Trolox at a concentration of 1000 µM was added to 90 µL of ABTS+ free radical solution in each well of a 96-well plate and incubated for 2 min in the dark at ambient temperature. The absorbance of each well was measured at 734 nm using a microplate reader (VersaMax; Molecular Devices). The ABTS+ radical scavenging activities of BABT derivatives were compared to those of Trolox. All experiments were carried out independently, thrice.
# [6] = Peroxynitrite scavenging assay; settings: 20 µM; SIN-1 as generator; DHR123 probe
# Description: The effects of the BABT derivatives on peroxynitrite scavenging activities were also examined using SIN-1 as an RNS generator and dihydrorhodamine (DHR123) as an ROS indicator. DHR123 was converted to fluorescent rhodamine 123 by peroxynitrite generated by SIN-1. Therefore, the peroxynitrite scavenging activities of 1–14 were assessed by measuring the fluorescence of rhodamine 123. BABT derivatives and penicillamine, the positive control, were used at a concentration of 20 µM.
# The peroxynitrite scavenging activities of the BABT derivatives were assessed using the method developed by Kooy, involving the monitoring of highly fluorescent rhodamine 123, which was rapidly produced from non-fluorescent DHR123 in the presence of peroxynitrite. Rhodamine buffer (pH 7.4) was composed of 50 mM sodium phosphate dibasic, 50 mM sodium phosphate monobasic, 90 mM sodium chloride, 5 mM potassium chloride, and 100 µM DTPA. A 10 µL aliquot of BABT derivatives or PCA (final concentration: 20 µM) was seeded in a black 96-well plate. Then, 10 µL of SIN-1 (10 µM) was added to induce radical species generation and mixed with 180 µL of rhodamine buffer. Fluorescence intensity was measured at emission and excitation wavelengths of 535 and 485 nm, respectively, using a fluorescence microplate reader (Berthold Technologies GmbH & Co.). PCA was used as the positive control.
# mushroom tyrosinase [7] = target: mushroom tyrosinase; parameters: method as in PMID 26235587; settings: in the presence of L-tyrosine; cited from earlier work
# [8] = substrate L-tyrosine, read-out: IC50 (µM) L-Tyrosine
# T1 sequence (C7FF04 1-392): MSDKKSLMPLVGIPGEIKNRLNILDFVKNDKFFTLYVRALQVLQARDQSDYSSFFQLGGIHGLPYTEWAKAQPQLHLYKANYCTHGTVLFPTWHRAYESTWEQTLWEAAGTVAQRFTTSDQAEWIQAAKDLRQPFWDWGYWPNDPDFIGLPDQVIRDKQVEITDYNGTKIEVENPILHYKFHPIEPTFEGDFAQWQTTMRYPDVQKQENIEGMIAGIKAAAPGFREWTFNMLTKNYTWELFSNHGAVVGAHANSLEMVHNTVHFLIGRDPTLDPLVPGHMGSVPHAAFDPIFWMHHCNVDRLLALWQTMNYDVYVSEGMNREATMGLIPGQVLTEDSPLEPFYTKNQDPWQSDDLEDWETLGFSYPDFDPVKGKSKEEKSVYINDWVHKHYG
SMILES,IC50 (mushroom tyrosinase [1]; [8]) [µM],"DPPH radical scavenging activity, % inhibition [3] [%]",ROS scavenging activity (in words) [4],"ABTS radical scavenging activity, % inhibition [5] [%]",also measured
"COc1ccc(/C=C2\SC(NCc3ccccc3)=NC2=O)cc1O [Compound 7, (Z)-2-(benzylamino)-5-(3-hydroxy-4-methoxybenzylidene)thiazol-4(5H)-one]",10 ± 0.9,47,moderate ROS scavenging activities,–,"IC50 (mushroom tyrosinase [1]; substrate L-dopa, read-out: IC50 (µM) L-Dopa): 10.3 ± 0.24 µM; fold stronger tyrosinase inhibitory activity than derivative 5 (mushroom tyrosinase [1]; substrate L-tyrosine): 14.8 fold; Ki (mushroom tyrosinase [2]; Dixon plots, read-out: inhibition constant (Ki) for the mushroom tyrosinase–inhibitor complex): 3.1 µM; mode of inhibition (mushroom tyrosinase [2]; Lineweaver–Burk plots): competitive inhibitors; cytotoxicity (B16F10 cells; 72 h): showed cytotoxicity at a concentration of 20 µM; cytotoxicity (B16F10 cells; up to 48 h): not cytotoxic at all concentrations"
"O=C1N=C(NCc2ccccc2)S/C1=C\c1ccc(O)c(O)c1 [Compound 9, (Z)-2-(benzylamino)-5-(3,4-dihydroxybenzylidene)thiazol-4(5H)-one]",> 300,89,strongly reduced the ROS levels enhanced by SIN-1,87,fold more potent than kojic acid (mushroom tyrosinase [1]; substrate L-dopa): 2 fold; peroxynitrite scavenging activity (in words) [6]: strong ROS and peroxynitrite scavenging activities
O=C1N=C(Nc2nc3ccccc3s2)S/C1=C\c1ccc(O)cc1O [MHY2081],–,–,–,–,IC50 (mushroom tyrosinase [7]): 1800 nM
"Cc1c(C)c2c(c(C)c1O)CCC(C)(C(=O)O)O2 (stereo not drawn) [Trolox, reference compound]",–,–,reduced the ROS levels enhanced by SIN-1,99,–
